# Legend:
# [1] = test system: MCP-1 production of THP-1 cells; experiment: MCP-1 production of THP-1 cells stimulated with LPS; type: cell-based, human; conditions: for Inhibition rate of MCP-1 production of THP-1 cells: same method as Example 1 (LPS), concentration not given; for MCP-1 production of THP-1 cells (effect in words): 10 μg/ml LPS, compound added before LPS, supernatant 24 hours after stimulation
# Method: The action of beraprost (BPS) on MCP-1 production was examined by using human monocyte/macrophage system leukemic cells THP-1. Lipopolysaccharide (LPS: Difco Corp.) reactive substrains were isolated from THP-1 cells (obtained from ATCC Corp.), and cultured in a RPMI 1640 medium (Gibco Corp.) containing 10% FCS in a flask. The THP-1 cells (1×10^5 cells) were dispensed to a 12-well plate, and activated with 10 μg/ml of LPS. BPS was added 5 minutes before LPS stimulation. A cell supernatant was obtained 24 hours after stimulation, and the amount of MCP-1 production was measured by using a human MCP-1 eraser kit (R&D Corp.). The amount of production was calculated based on a calibration curve formed in the range of 31.2 to 2000 pg/ml by using MCP-1 standards contained in the kit.
# The actions of prostaglandin I2 (PGI2), prostaglandin E1 (PGE1), and prostaglandin E2 (PGE2) on MCP-1 production were examined by the same method as Example 1. As a result, MCP-1 production was inhibited by PGI2, PGE1, and PGE2 (FIG. 6).
# The actions of the compounds shown in the table below on MCP-1 production by the same method as Example 1. The action of each of the compounds was shown by an inhibition rate. As a result, MCP-1 production was inhibited by these compounds (Table 2).
# [2] = test system: streptozotocin-induced diabetic rats; experiment: Neurotransmission rate of the ischiatic nerve in streptozotocin-induced diabetic rats; type: in vivo, rat
# [3] = test system: MCP-1 mRNA of THP-1 cells; experiment: Expression of MCP-1 mRNA of THP-1 cells stimulated with LPS; type: cell-based, human; conditions: 10 μg/ml LPS, RNA 24 hours after stimulation
# Method: The action of BPS on MCP-1 production was examined by using human monocyte/macrophage system leukemic cells THP-1 and the amount of mRNA expression as an index. LPS reactive substrains were isolated from THP-1 cells, and cultured in a RPMI 1640 medium containing 10% FCS in a flask. THP-1 cells (1×10^6 cells) were dispensed to a petri dish having a diameter of 10 cm, and activated with 10 μg/ml of LPS. BPS was added 5 minutes before LPS stimulation. The total of RNA was extracted with a LiCl-urea solution (6M urea/3M LiCl/5 mM EDTA) 24 hours after stimulation, and dissolved in a TE solution (10 mm Tris-HCl/lmM EDTA, pH 8.0), and then proteins were removed with phenol and chloroform, followed by RNA recovery by ethanol precipitation. RNA was developed by formaldehyde-modified 1% agarose gel, and transferred to a Hybond-N filter (Amersham Corp.), and then MCP-1 mRNA was detected by using a ^32 human MCP-1 probe. The detection was carried out by using a X-ray film or imaging film, and the amount of expression was digitized by BAS2000.
# [4] = test system: MCP-3 production of THP-1 cells; experiment: MCP-3 production of THP-1 cells stimulated with LPS; type: cell-based, human; conditions: 10 μg/ml LPS, supernatant 24 hours after stimulation
# Method: The action of BPS on MCP-3 production was examined by using human monocyte/macrophage system leukemic cells THP-1. LPS reactive substrains were isolated from THP-1 cells, and cultured in a RPMI 1640 medium containing 10% FCS in a flask. THP-1 cells (1×10^6 cells) were dispensed to a 12-well plate, and activated with 10 μg/ml of LPS. BPS was added 5 minutes before LPS stimulation. A cell supernatant was obtained 24 hours after stimulation, and the amount of the MCP-3 produced was measured by using a MCP-3 detection method developed by the inventors. The amount of production was calculated based on a calibration curve formed in the range of 0.195 to 12.5 ng/ml by using MCP-3 standards.
# [5] = test system: MCP-1 production of human peripheral blood monocytes; experiment: MCP-1 production of human peripheral blood-derived monocytes stimulated with LPS; type: cell-based
# From the text: The action of BPS on MCP-1 production was studied by using human peripheral blood-derived monocytes. The heparinized peripheral blood of a healthy person was superposed on a histo-pack (Sigma Corp.), and centrifuged to obtain a monocyte layer. The thus-obtained monocyte layer was reacted with magnetic beads (Miltenyi Biotec Corp.) of anti—CD3 and anti—CD19, and monocytes were purified by a negative selection method using a MACS column (Miltenyi Biotec Corp.). The thus-obtained monocytes were re-suspended in a RPMI 1640 medium so that 1×10^6 cells/ml of cells were obtained. The cells were dispensed to a 48-well plate, and activated with 10 ng/ml of LPS. BPS was added 5 minutes before LPS stimulation. A cell supernatant was obtained 24 hours after stimulation, and the amount of MCP-1 produced was measured by using a human MCP-1 eraser kit. The amount of production was calculated based on a calibration curve formed in the range of 31.2 to 2000 pg/ml by using MCP-1 standards contained in the kit.
# (§1) The action of prostaglandin J2 (PGJ2) on MCP-1 production due to LPS or TPA simulation was studied by the same method as Examples 3 and 8 using monocytes derived from the human peripheral blood. PGJ2 was added 1 minute before stimulation. As a result, MCP-1 production due to stimulation by either LPS or TPA was inhibited by PGJ2(Table 3).
# MCP-1 amount in blood = experiment: MCP-1 amount in LPS-induced blood of streptozotocin diabetic rats; type: in vivo, rat
# Method: SD male rats were intravenously administered with 45 mg/kg streptozotocin to induce diabetes. At the eighth week after 2 mg/kg of LPS was administered to the rats to measure the MCP-1 amount in the blood before administration and 3 and 6 hours after administration. BPS was orally administered to the rats 30 minutes before LPS administration. Rats of the same age as the diabetic rat group were used as a normal group.
# [6] = test system: glomerulonephritis rat model; experiment: Glomerulonephritis rat model (anti-glomerular basement membrane antibody); type: in vivo
# Method: A glomerular basement membrane was administered with an antibody to form a glomerulonephritis rat model. The rats used were 9-week old male WKY rats which were purchased from Japan Charles River. The antibody was obtained by immunizing the rat glomerular basement membrane against rabbits. […] A glomerular lesion such as formation of the crescent was also confirmed by pathological findings, and an irreversible glomerulonephritis model could be formed by administering the antibody to the anti-glomerular basement membrane. MCP-1 production in the kidney was increased with the passage of days after administration of the antibody to produce infiltration of leukocytes such as macrophages and the like. 1 mg/kg of BPS was orally administered on consecutive days to study the action of BPS on MCP-1 production and infiltration of the macrophages. The MCP-1 production was studied by purifying messenger RNA (mRNA) from the rat kidneys, and determining the amount of MCP-1 mRNA expression by quantitative PCR. The macrophage infiltration was studied by immunostaining with an anti-macrophage antibody (ED-1), and then counting the macrophages infiltrated into the glomeruli under a microscope. […] Using the same glomerulonephritis model, the action of BPS on the amount of urea protein was studied 4 days and 7 days after administration of the antibody.
# [7] = test system: MCP-1 production of human peripheral blood monocytes; experiment: MCP-1 production of human peripheral blood monocytes stimulated with TPA; type: cell-based
# Method: Monocytes derived from the human peripheral blood were isolated by the same method as Example 3, and stimulated with 25 nM 12-o-tetradecanoylphorbol 13-acetate (TPA) to induce MCP-1 production. The action of BPS on MCP-1 production was studied.
# as §1
# [8] = test system: RANTES production of THP-1 cells; experiment: RANTES production of THP-1 cells stimulated with LPS; type: cell-based, human; conditions: LPS stimulation, 10 μM PGJ2 (5177 without PGJ2)
# Method: THP-1 cells were prepared by the same method as Example 1, and stimulated with LPS to induce RANTES production. The amount of RANTES production was measured by RANTES eraser kit (R&D Corp.). The action of PGJ2 on RANTES production was studied.
smiles,measurement,setting,value
O=C(O)CCc1cccc2c1O[C@H]1C[C@@H](O)C(/C=C/[C@@H](O)c3ccccc3)[C@@H]21 (stereo partly drawn),Inhibition rate of MCP-1 production of THP-1 cells,[1],58%
CC(O)CCc1cccc2c1O[C@H]1C[C@@H](O)C(/C=C/[C@@H](O)C(C)(C)Oc3ccccc3)[C@@H]21 (stereo partly drawn),Inhibition rate of MCP-1 production of THP-1 cells,[1],4%
"CCCCC[C@H](O)/C=C/[C@H]1[C@H](O)CC(=O)[C@@H]1CCCCCCC(=O)O [PGE1, prostaglandin E1]",MCP-1 production of THP-1 cells (effect in words),[1],inhibited
O=C(O)COc1cccc2c1O[C@H]1C[C@@H](O)C(/C=C/[C@@H](O)c3ccccc3)[C@@H]21 (stereo partly drawn),Inhibition rate of MCP-1 production of THP-1 cells,[1],61%
"CCCCC[C@H](O)/C=C/[C@@H]1[C@H]2C/C(=C/CCCC(=O)O)O[C@H]2C[C@H]1O [PGI2, prostaglandin I2]",MCP-1 production of THP-1 cells (effect in words),[1],inhibited
O=C(O)CCc1cccc2c1O[C@H]1C[C@@H](O)C(/C=C/[C@@H](O)C3CCCCC3)[C@@H]21 (stereo partly drawn),Inhibition rate of MCP-1 production of THP-1 cells,[1],85%
"CC#CCC(C)[C@H](O)/C=C/[C@@H]1[C@H]2c3cccc(CCCC(=O)O)c3O[C@H]2C[C@H]1O (mixture of isomers) [BPS, beraprost]",MCP-1 production of THP-1 cells (effect in words),[1],inhibits dose-dependently
same,decrease in the neurotransmission rate due to diabetes (effect in words),[2],significantly improved
same,expression of MCP-1 mRNA of THP-1 cells (effect in words),[3],inhibits dose-dependently
same,MCP-3 production of THP-1 cells (effect in words),[4],inhibits dose-dependently
same,MCP-1 production of human peripheral blood monocytes (effect in words),"[5]; 10 ng/ml LPS, supernatant 24 hours after stimulation",inhibits dose-dependently
same,MCP-1 amount in blood,"MCP-1 amount in blood; BPS oral 30 minutes before 2 mg/kg LPS, 3 hours after",7.27 ± 2.55 ng/mL
same,MCP-1 amount in blood,"MCP-1 amount in blood; BPS oral 30 minutes before 2 mg/kg LPS, 6 hours after",4.82 ± 4.40 ng/mL
same,MCP-1 amount in blood,"MCP-1 amount in blood; BPS oral 30 minutes before LPS, before LPS administration",0.39 ± 0.13 ng/mL
same,MCP-1 mRNA expression in kidney (effect in words),"[6]; 1 mg/kg BPS oral on consecutive days, 4 days and 7 days after antibody, quantitative PCR",inhibition
same,infiltration of macrophage per glomerulus (effect in words),"[6]; 1 mg/kg BPS oral on consecutive days, 4 days and 7 days after antibody, vs distilled water group",significantly inhibited
same,amount of urea protein (effect in words),"[6]; 1 mg/kg BPS oral, 4 days and 7 days after administration of the antibody",significantly decreased
same,MCP-1 produced,"[7]; 25 nM TPA stimulation, 100 nM BPS (224.7 without BPS)",184 pg/1×10^6 cells
O=C(O)CCc1cccc2c1O[C@H]1C[C@@H](O)C(/C=C/[C@@H](O)CC3CCCCC3)[C@@H]21 (stereo partly drawn),Inhibition rate of MCP-1 production of THP-1 cells,[1],87%
"CCCCC[C@H](O)/C=C/[C@H]1C(=O)C=C[C@@H]1C/C=C\CCCC(=O)O [PGJ2, prostaglandin J2]",RANTES produced,[8],2403 pg/5×10^5 cells
same,MCP-1,[5]; LPS 10 ng/ml + PGJ2 10 μM (21872 with LPS alone),6 pg/10^6 cells
same,MCP-1,[7]; TPA 25 nM + PGJ2 10 μM (225 with TPA alone),2 pg/10^6 cells
"CCCCC[C@H](O)/C=C/[C@H]1[C@H](O)CC(=O)[C@@H]1C/C=C\CCCC(=O)O [PGE2, prostaglandin E2]",MCP-1 production of THP-1 cells (effect in words),[1],inhibited
CC(C)(CO)Cc1cccc2c1O[C@H]1C[C@@H](O)C(/C=C/[C@@H](O)C(C)(C)Oc3ccccc3)[C@@H]21 (stereo partly drawn),Inhibition rate of MCP-1 production of THP-1 cells,[1],28%

# From patent US6653345B2, “C-C chemokine synthesis inhibitor” (Toray Industries, Inc., priority 1997, dated 2003)
